How the values were obtained:
[1] = molecular target: 48 kDa Lys-specific proteinase (PrtK48) (Porphyromonas gingivalis, UniProt Q51817); type: biochemical, P. gingivalis W50
[2] = molecular target: T1, 45 kDa Arg-specific proteinase (Porphyromonas gingivalis, UniProt P28784); experiment: biochemical; type: biochemical, P. gingivalis W50; details: for activity at 100 µM / activity at 1000 µM / activity at 10000 µM: read-out: Activity (%) of the 45 kDa Arg-specific proteinase
T1 construct: made in house; host or cells: native protein purified from sonicate of P. gingivalis W50 cells (Q-sepharose, Superose 12, Arg-sepharose 200 mM arginine eluant, Mono Q)
T1 sequence (P28784 228-719): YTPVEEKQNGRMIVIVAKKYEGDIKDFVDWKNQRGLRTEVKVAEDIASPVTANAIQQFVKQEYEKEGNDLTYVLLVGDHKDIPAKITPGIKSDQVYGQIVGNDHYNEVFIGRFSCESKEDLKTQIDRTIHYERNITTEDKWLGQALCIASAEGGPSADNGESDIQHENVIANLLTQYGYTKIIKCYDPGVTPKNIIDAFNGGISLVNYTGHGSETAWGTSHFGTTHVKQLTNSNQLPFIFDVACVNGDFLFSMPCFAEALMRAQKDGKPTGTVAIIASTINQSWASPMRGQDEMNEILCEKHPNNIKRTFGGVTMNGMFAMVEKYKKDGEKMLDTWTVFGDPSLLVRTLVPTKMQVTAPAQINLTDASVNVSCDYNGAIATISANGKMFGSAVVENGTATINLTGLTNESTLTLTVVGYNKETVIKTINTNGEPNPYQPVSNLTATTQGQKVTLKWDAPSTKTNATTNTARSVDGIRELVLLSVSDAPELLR

[3] = molecular target: PrtR45, 45 kDa Arg-specific proteinase (Porphyromonas gingivalis W50); experiment: cell-based or functional assay
Sequence of PrtR45, 45 kDa Arg-specific proteinase (Porphyromonas gingivalis W50) (B2RM93 225-247): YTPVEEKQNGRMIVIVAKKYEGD

[4] = compound 1.0 mM, incubation also contained 1.0 mM 2-mercaptoethanol
[5] = compound 10.0 mM, incubation also contained 1.0 mM 2-mercaptoethanol

Sequence of 48 kDa Lys-specific proteinase (PrtK48) (Q51817 229-680 limits assumed): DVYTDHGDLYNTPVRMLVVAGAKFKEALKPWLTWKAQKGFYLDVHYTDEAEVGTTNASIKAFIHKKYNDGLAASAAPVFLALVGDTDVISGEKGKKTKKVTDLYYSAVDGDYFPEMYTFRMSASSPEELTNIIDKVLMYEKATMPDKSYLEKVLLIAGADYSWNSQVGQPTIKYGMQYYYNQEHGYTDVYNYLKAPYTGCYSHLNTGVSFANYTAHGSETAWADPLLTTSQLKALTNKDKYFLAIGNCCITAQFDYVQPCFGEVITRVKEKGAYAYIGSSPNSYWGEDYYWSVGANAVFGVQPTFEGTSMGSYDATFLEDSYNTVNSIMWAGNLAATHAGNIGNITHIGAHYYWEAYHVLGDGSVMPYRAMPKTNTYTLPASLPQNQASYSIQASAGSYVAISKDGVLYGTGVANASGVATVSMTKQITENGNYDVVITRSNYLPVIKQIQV

CC(=O)N[C@@H](CC(C)C)C(=O)N[C@@H](CC(C)C)C(=O)N[C@H](C=O)CCCNC(=N)N [Leupeptin]
Effect on the Lys-specific enzyme (in words) [1]: not inhibited
Effect on the Arg-specific 45 kDa enzyme (in words) [2]: inhibited
activity at 100 µM [2]: 0%

OCCS [2-mercaptoethanol]
Activity (%) of the 45 kDa Arg-specific proteinase ([2]; compound 1.0 mM): 100%
Activity (%) of the 45 kDa Arg-specific proteinase ([2]; compound 10.0 mM): 158%
Activity (%) of the 45 kDa Arg-specific proteinase ([2]; compound 50.0 mM): 189%

Leupeptin (peptide)
Activity (%) (amidolytic activity, leupeptin at 0.1 mM) [3]: 0%

O=C(O)CI [Iodoacetic acid]
activity at 1000 µM [2]: 82%
activity at 10000 µM [2]: 19%

O=C(O)CN(CCN(CC(=O)O)CC(=O)O)CC(=O)O [EDTA]
Effect on the Lys-specific enzyme (in words) [1]: not inhibited
Effect on the Arg-specific 45 kDa enzyme (in words) [2]: inhibited
Activity (%) of the 45 kDa Arg-specific proteinase ([2]; EDTA +Ca2+ 50.0 mM, incubation also contained 1.0 mM 2-mercaptoethanol): 97%
Activity (%) of the 45 kDa Arg-specific proteinase [2, 4]: 100%
Activity (%) of the 45 kDa Arg-specific proteinase [2, 5]: 4%
Activity (%) of the 45 kDa Arg-specific proteinase ([2]; compound 50.0 mM, incubation also contained 1.0 mM 2-mercaptoethanol): 0%

c1cnc2c(c1)ccc1cccnc12 [o-phenanthroline]
Activity (%) of the 45 kDa Arg-specific proteinase [2, 5]: 100%

O[C@H](CS)[C@H](O)CS (racemic) [Dithiothreitol]
activity at 1000 µM [2]: 109%
activity at 10000 µM [2]: 174%

N[C@@H](CS)C(=O)O [L-cysteine]
Effect on the Arg-specific 45 kDa enzyme (in words) [2]: activated
activity at 100 µM [2]: 183%
activity at 1000 µM [2]: 320%
activity at 10000 µM [2]: 487%

O=S(=O)(F)Cc1ccccc1 [PMSF, phenylmethyl sulfonyl fluoride]
Effect on the Arg-specific 45 kDa enzyme (in words) [2]: not inhibited
Activity (%) of the 45 kDa Arg-specific proteinase [2, 5]: 90%

O=C(O)c1cc[c]([Hg][Cl])cc1 [PCMB, p-chloromercuribenzoic acid]
Activity (%) of the 45 kDa Arg-specific proteinase [2, 4]: 100%
Activity (%) of the 45 kDa Arg-specific proteinase [2, 5]: 14%

NCCc1ccc(S(=O)(=O)F)cc1 [AEBSF, [4-(2-aminoethyl)-benzenesulfonylfluoride]]
Effect on the Arg-specific 45 kDa enzyme (in words) [2]: not inhibited
Activity (%) of the 45 kDa Arg-specific proteinase [2, 4]: 93%
Activity (%) of the 45 kDa Arg-specific proteinase [2, 5]: 80%

Source: patent US6511666B1, “Diagnostics and treatments of periodontal disease” (priority 1995, dated 2003)
